In ChEMBL document CHEMBL5393454, “Compounds inhibitors of mettl3” (2022):

Target: N6-adenosine-methyltransferase catalytic subunit (Homo sapiens, UniProt Q86U44)
Assay: Inhibition of full length His-tagged METTL3 (unknown origin) co-expressed with full length FLAG-tagged METTL14 in baculovirus expression system preincubated using 5'P-uacacucgaucuggacuaaagcugcuc-3' as substrate and SAM as cosubstrate pre-incubated for 10 mins followed by addition of substrates and measured after 60 mins by RapidFire mass spectrometry (RF/MS) analysis

N6-adenosine-methyltransferase catalytic subunit, sequence (Q86U44 whole entry): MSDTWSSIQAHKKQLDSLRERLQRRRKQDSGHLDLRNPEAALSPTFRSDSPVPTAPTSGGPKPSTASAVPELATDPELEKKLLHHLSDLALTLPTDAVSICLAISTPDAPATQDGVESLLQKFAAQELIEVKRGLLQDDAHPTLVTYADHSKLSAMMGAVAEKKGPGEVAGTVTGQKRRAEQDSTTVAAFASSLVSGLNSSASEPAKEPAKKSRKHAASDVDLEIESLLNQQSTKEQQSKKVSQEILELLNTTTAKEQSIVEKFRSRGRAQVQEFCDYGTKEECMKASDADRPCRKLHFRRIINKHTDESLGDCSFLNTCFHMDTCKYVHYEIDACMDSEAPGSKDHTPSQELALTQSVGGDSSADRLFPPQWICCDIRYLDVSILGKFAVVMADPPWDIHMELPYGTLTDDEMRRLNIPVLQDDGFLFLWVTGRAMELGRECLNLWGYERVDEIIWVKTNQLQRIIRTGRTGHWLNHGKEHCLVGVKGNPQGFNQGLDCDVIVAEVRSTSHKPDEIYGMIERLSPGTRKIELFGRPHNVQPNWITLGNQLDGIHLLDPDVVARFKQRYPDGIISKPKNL

Row | IC50 | SMILES
1 | 22.7 nM | Nc1ncnc2c1c(Br)cn2[C@@H]1O[C@H](/C=C/CCCNCC2CC(F)(F)C2)[C@@H](O)[C@H]1O
2 | < 6 nM | Nc1ncnc2c1c(Br)cn2[C@@H]1O[C@H](/C=C/CCCNCC23CC(F)(C2)C3)[C@@H](O)[C@H]1O
3 | < 6 nM | Nc1ncnc2c1c(Br)cn2[C@@H]1C[C@H](c2ccc3cc(CNCC45CC(F)(C4)C5)[nH]c3c2)[C@@H](O)[C@H]1O
